Test results taken from PubChem BioAssay (NCI).
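Growth conditions: 96-well plates. Treatment: test compound, 48 hours, 5 concentrations. Analysis: linear interpolation between bracketing concentrations; unreached endpoints set to highest concentration. At the GI50, growth is halved. TGI: total growth inhibition.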

What was measured:
Experiment in all cases: DTP human tumour cell line panel, 48 h
[1] = system: MCF7 breast
[2] = system: SF-539 CNS
[3] = system: HCT-116 colon
[4] = system: M14 melanoma
[5] = system: BT-549 breast
[6] = system: SF-268 CNS
[7] = system: HCC-2998 colon
[8] = system: NCI-H522 lung
[9] = system: SNB-19 CNS
[10] = system: K-562 leukemia
[11] = system: A498 renal
[12] = system: UACC-62 melanoma
[13] = system: SN12C renal
[14] = system: HS 578T breast
[15] = system: EKVX NSCLC
[16] = system: HOP-62 NSCLC
[17] = system: UACC-257 melanoma
[18] = system: RPMI-8226 leukemia
[19] = system: ACHN renal
[20] = system: OVCAR-5 ovarian
[21] = system: MALME-3M melanoma
[22] = system: SK-MEL-28 melanoma
[23] = system: OVCAR-3 ovarian
[24] = system: MDA-MB-231 breast
[25] = system: HCT-15 colon
[26] = system: DU-145 prostate
[27] = system: U251 CNS
[28] = system: NCI-H226 lung
[29] = system: UO-31 renal
[30] = system: HT29 colon
[31] = system: NCI-H460 lung
[32] = system: SNB-75 CNS
[33] = system: KM12 colon
[34] = system: SK-OV-3 ovarian
[35] = system: LOX IMVI melanoma
[36] = system: MOLT-4 leukemia
[37] = system: T-47D breast
[38] = system: CCRF-CEM leukemia
[39] = system: SR leukemia
[40] = system: RXF 393 renal
[41] = system: NCI-H23 lung
[42] = system: HL-60(TB) leukemia
[43] = system: TK-10 renal
[44] = system: SK-MEL-2 melanoma
[45] = system: MDA-MB-435
[46] = system: SK-MEL-5 melanoma
[47] = system: OVCAR-4 ovarian
[48] = system: CAKI-1 renal
[49] = system: SW-620 colon
[50] = system: NCI/ADR-RES ovarian
[51] = system: 786-0 renal
[52] = system: A549 NSCLC
[53] = system: COLO 205 colon
[54] = system: OVCAR-8 ovarian
[55] = system: SF-295 CNS
[56] = system: HOP-92 NSCLC
[57] = system: PC-3 prostate
[58] = system: IGROV1 ovarian

## CCCCOC(=O)NC(Nc1ccc(S(N)(=O)=O)cc1)(C(F)(F)F)C(F)(F)F
[1]
  TGI: > 100 µM
[2]
  TGI: > 100 µM
[3]
  TGI: > 100 µM
[4]
  TGI: > 100 µM
[5]
  TGI: > 100 µM
[6]
  TGI: > 100 µM
[7]
  TGI: > 100 µM
[8]
  TGI: > 100 µM
[9]
  TGI: > 100 µM
[10]
  TGI: > 100 µM
[11]
  TGI: > 100 µM
[12]
  TGI: > 100 µM
[13]
  TGI: > 100 µM
[14]
  TGI: > 100 µM
[15]
  TGI: > 100 µM
[16]
  TGI: > 100 µM
[17]
  TGI: > 100 µM
[18]
  TGI: > 100 µM
[19]
  TGI: > 100 µM
[20]
  TGI: > 100 µM
[21]
  TGI: > 100 µM
[22]
  TGI: > 100 µM
[23]
  TGI: > 100 µM
[24]
  TGI: > 100 µM
[25]
  TGI: > 100 µM
[26]
  TGI: > 100 µM
[27]
  TGI: > 100 µM
[28]
  TGI: > 100 µM
[29]
  TGI: > 100 µM
[30]
  TGI: > 100 µM
[31]
  TGI: > 100 µM
[32]
  TGI: > 100 µM
[33]
  TGI: > 100 µM
[34]
  TGI: > 100 µM
[35]
  TGI: > 100 µM
[36]
  TGI: > 100 µM
[37]
  TGI: > 100 µM
[38]
  TGI: > 100 µM
[39]
  TGI: > 100 µM
[40]
  TGI: > 100 µM
[41]
  TGI: > 100 µM
[42]
  TGI: > 100 µM
[43]
  TGI: > 100 µM
[44]
  TGI: > 100 µM
[45]
  TGI: > 100 µM

## Nc1ccn(C2OC(CO)C3[O][Sn]([c]4ccccc4)([c]4ccccc4)[O]C32)c(=O)n1 (stereo not given)
[1]
  GI50: 0.0984 µM
[2]
  GI50: 2.17 µM
  TGI: 20.5 µM
[3]
  GI50: 0.024 µM
[46]
  GI50: 3.75 µM
[5]
  GI50: 30.7 µM
[6]
  GI50: 1.79 µM
[7]
  GI50: 0.0629 µM
  TGI: 17.9 µM
[8]
  GI50: 10.8 µM
  TGI: 29 µM
[9]
  GI50: 3.34 µM
[47]
  GI50: 43.1 µM
[10]
  GI50: 53.2 µM
[12]
  GI50: 6.36 µM
[48]
  GI50: 4.66 µM
[49]
  GI50: 0.803 µM
  TGI: 61.5 µM
[50]
  GI50: 4.73 µM
[14]
  GI50: 29.5 µM
[15]
  GI50: 34.2 µM
[16]
  GI50: 1.51 µM
[18]
  GI50: 13.7 µM
  TGI: 49.1 µM
[19]
  GI50: 0.361 µM
[21]
  GI50: 17.9 µM
[23]
  GI50: 34.8 µM
[24]
  GI50: 24.1 µM
  TGI: 82.6 µM
[25]
  GI50: 15 µM
[26]
  GI50: 0.149 µM
  TGI: 19.6 µM
[27]
  GI50: 0.617 µM
  TGI: 22.8 µM
[29]
  GI50: 0.221 µM
[51]
  GI50: 0.656 µM
[30]
  GI50: 1.45 µM
[31]
  GI50: 0.0187 µM
[32]
  GI50: 14 µM
  TGI: 50.1 µM
[33]
  GI50: 35.5 µM
[34]
  GI50: 26.6 µM
[52]
  GI50: 0.0344 µM
[53]
  GI50: 0.141 µM
[37]
  GI50: 15.3 µM
[40]
  GI50: 1.73 µM
  TGI: 22.3 µM
[41]
  GI50: 0.39 µM
[43]
  GI50: 32.3 µM
[45]
  GI50: 6.25 µM

## COC(=O)[C@@H](C[C@H](Cc1ccccc1)NC(=O)c1csc([C@@H](C[C@H](C(C)C)N(C)C(=O)[C@@H](NC(=O)[C@H]2CCCCN2C)C(C)C)OC(C)=O)n1)NC(=O)OCc1ccccc1
[1]
  GI50: < 0.000833 µM
  TGI: > 8.33 µM
[2]
  GI50: < 0.000833 µM
  TGI: 0.00385 µM
[54]
  GI50: < 0.000833 µM
  TGI: > 8.33 µM
[3]
  GI50: < 0.000833 µM
[46]
  GI50: < 0.000833 µM
  TGI: 0.0386 µM
[4]
  GI50: < 0.000833 µM
  TGI: 0.412 µM
[5]
  GI50: 0.00149 µM
  TGI: 0.0839 µM
[6]
  GI50: 0.00137 µM
  TGI: > 8.33 µM
[7]
  GI50: < 0.000833 µM
  TGI: > 2.89 µM
[8]
  GI50: < 0.000833 µM
  TGI: 0.04 µM
[9]
  GI50: < 0.000833 µM
  TGI: > 8.33 µM
[47]
  GI50: 0.00717 µM
  TGI: > 8.33 µM
[10]
  GI50: < 0.000833 µM
  TGI: > 3.18 µM
[55]
  GI50: 0.00133 µM
  TGI: > 8.33 µM
[11]
  GI50: 0.0011 µM
  TGI: 0.0104 µM
[12]
  GI50: < 0.000833 µM
  TGI: > 8.33 µM
[48]
  GI50: 0.00166 µM
  TGI: > 8.33 µM
[13]
  GI50: 0.00146 µM
  TGI: > 8.33 µM
[49]
  GI50: < 0.000833 µM
  TGI: > 8.33 µM
[50]
  GI50: 0.0439 µM
  TGI: > 1.69 µM
[14]
  GI50: < 0.000833 µM
  TGI: > 3.55 µM
[15]
  GI50: 0.0175 µM
  TGI: > 8.33 µM
[16]
  GI50: 0.00112 µM
  TGI: > 8.33 µM
[17]
  GI50: 0.0309 µM
  TGI: 2.59 µM
[18]
  GI50: < 0.000833 µM
  TGI: 2.49 µM
[19]
  GI50: 0.00293 µM
  TGI: > 8.33 µM
[20]
  GI50: 0.00538 µM
  TGI: > 8.33 µM
[21]
  GI50: < 0.000833 µM
  TGI: 2.68 µM
[22]
  GI50: 0.906 µM
  TGI: 2.39 µM
[23]
  GI50: < 0.000833 µM
[24]
  GI50: 0.00131 µM
  TGI: > 6.73 µM
[25]
  GI50: 0.00454 µM
  TGI: > 8.33 µM
[26]
  GI50: < 0.000833 µM
[27]
  GI50: < 0.000833 µM
  TGI: > 2.65 µM
[28]
  GI50: 0.00168 µM
  TGI: 0.136 µM
[29]
  GI50: 0.0113 µM
  TGI: > 8.33 µM
[51]
  GI50: 0.00165 µM
  TGI: > 8.33 µM
[30]
  GI50: < 0.000833 µM
  TGI: > 8.33 µM
[56]
  GI50: 0.00236 µM
  TGI: > 8.33 µM
[31]
  GI50: < 0.000833 µM
  TGI: > 8.33 µM
[32]
  GI50: < 0.000833 µM
  TGI: > 8.33 µM
[57]
  GI50: < 0.000833 µM
  TGI: > 8.33 µM
[33]
  GI50: < 0.000833 µM
  TGI: > 8.33 µM
[34]
  GI50: 0.00265 µM
  TGI: > 8.33 µM
[58]
  GI50: < 0.000833 µM
  TGI: > 7.68 µM
[35]
  GI50: < 0.000833 µM
  TGI: > 8.33 µM
[52]
  GI50: 0.00186 µM
  TGI: > 8.33 µM
[36]
  GI50: < 0.000833 µM
  TGI: > 8.33 µM
[53]
  GI50: < 0.000833 µM
[38]
  GI50: < 0.000833 µM
  TGI: > 7.92 µM
[39]
  GI50: < 0.000833 µM
  TGI: > 3.4 µM
[40]
  GI50: 0.000948 µM
  TGI: > 8.33 µM
[41]
  GI50: 0.00119 µM
  TGI: > 8.33 µM
[42]
  GI50: < 0.000833 µM
  TGI: 0.00162 µM
[43]
  GI50: 0.107 µM
  TGI: > 8.33 µM
[44]
  GI50: < 0.000833 µM
  TGI: 3.45 µM
[45]
  GI50: < 0.000833 µM
  TGI: < 0.000833 µM
